Measured values published in ChEMBL document CHEMBL4376834, “Discovery of 4H-Chromen-4-one Derivatives as a New Class of Selective Rho Kinase (ROCK) Inhibitors, which Showed Potent Activity in ex Vivo Diabetic Retinopathy Models” (J Med Chem, 2019).

How the values were obtained:
[1] = biological target: Rho-associated protein kinase 1 (Homo sapiens, UniProt Q13464); experiment: Inhibition of recombinant human ROCK1 (17 to 535 residues) using […] as substrate incubated for 40 mins in presence of [gamma-33P]ATP and 10 uM ATP by radiometric scintillation counting analysis
[2] = biological target: Tyrosine-protein kinase ABL1 (Homo sapiens, UniProt P00519, H396P); experiment: Inhibition of human recombinant ABL1 H396P mutant (27 to end residues) using EAIYAAPFAKKK as substrate incubated for 40 mins in presence of [gamma-33P]ATP by radiometry scintillation counting analysis assay
[3] = biological target: Activin receptor type-1 (Homo sapiens, UniProt Q04771); experiment: Inhibition of human recombinant ALK2 (147 to end residues) using casein as substrate incubated for 40 mins in presence of [gamma-33P]ATP by radiometric scintillation counting analysis
[4] = biological target: Serine/threonine-protein kinase A-Raf (Homo sapiens, UniProt P10398); experiment: Inhibition of human recombinant A-Raf (273 to end residues) using myelin as substrate incubated for 40 mins in presence of [gamma-33ATP] by radiometric scintillation counting analysis
Serine/threonine-protein kinase A-Raf, sequence (P10398 whole entry): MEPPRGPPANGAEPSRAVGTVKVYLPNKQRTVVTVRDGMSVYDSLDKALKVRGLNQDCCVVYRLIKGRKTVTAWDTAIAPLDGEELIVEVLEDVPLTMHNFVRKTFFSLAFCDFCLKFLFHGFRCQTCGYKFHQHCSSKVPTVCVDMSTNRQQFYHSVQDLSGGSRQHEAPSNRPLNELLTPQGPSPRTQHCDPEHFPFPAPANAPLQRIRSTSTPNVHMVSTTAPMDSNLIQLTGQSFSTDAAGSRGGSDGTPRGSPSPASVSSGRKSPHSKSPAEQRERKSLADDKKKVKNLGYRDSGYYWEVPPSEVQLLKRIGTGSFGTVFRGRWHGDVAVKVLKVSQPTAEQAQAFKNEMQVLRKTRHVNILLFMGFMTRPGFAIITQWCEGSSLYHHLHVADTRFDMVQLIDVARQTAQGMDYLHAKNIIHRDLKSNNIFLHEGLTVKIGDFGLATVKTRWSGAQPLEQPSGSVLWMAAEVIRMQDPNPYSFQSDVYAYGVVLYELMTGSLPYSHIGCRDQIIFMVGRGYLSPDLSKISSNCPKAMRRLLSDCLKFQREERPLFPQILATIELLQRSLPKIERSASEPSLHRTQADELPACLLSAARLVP

[5] = biological target: Serine/threonine-protein kinase BRSK1 (Homo sapiens, UniProt Q8TDC3); experiment: Inhibition of recombinant human BRSK1 ( 2 to end residues) using KKKVSRSGLYRSP substrate incubated for 40 mins in presence of [gamma-33ATP] by radiometric scintillation counting analysis
[6] = biological target: Cyclin-dependent kinase-like 1 (Homo sapiens, UniProt Q00532); experiment: Inhibition of recombinant human CDKL1 (1 to 303 residues) using RRRFRPASPLRGP as substrate incubated for 120 mins in presence of [gamma-33ATP] by radiometric scintillation counting analysis
Cyclin-dependent kinase-like 1, sequence (Q00532 whole entry, the tested form may be a part): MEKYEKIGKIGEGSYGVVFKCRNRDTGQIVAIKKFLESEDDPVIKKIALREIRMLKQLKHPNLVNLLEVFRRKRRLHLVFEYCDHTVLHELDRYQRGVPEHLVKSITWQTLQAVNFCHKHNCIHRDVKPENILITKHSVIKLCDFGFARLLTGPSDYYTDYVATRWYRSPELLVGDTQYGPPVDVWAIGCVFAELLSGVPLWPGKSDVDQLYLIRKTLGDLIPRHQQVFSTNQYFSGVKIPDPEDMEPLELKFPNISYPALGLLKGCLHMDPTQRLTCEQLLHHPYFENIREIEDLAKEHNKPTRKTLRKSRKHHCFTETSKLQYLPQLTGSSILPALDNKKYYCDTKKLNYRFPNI

[7] = biological target: Serine/threonine-protein kinase Chk1 (Homo sapiens, UniProt O14757); experiment: Inhibition of recombinant full length human CHK1 using KKKVSRSGLYRSP as substrate incubated for 40 mins in presence of [gamma-33ATP] by radiometric scintillation counting analysis
Serine/threonine-protein kinase Chk1, sequence (O14757 whole entry): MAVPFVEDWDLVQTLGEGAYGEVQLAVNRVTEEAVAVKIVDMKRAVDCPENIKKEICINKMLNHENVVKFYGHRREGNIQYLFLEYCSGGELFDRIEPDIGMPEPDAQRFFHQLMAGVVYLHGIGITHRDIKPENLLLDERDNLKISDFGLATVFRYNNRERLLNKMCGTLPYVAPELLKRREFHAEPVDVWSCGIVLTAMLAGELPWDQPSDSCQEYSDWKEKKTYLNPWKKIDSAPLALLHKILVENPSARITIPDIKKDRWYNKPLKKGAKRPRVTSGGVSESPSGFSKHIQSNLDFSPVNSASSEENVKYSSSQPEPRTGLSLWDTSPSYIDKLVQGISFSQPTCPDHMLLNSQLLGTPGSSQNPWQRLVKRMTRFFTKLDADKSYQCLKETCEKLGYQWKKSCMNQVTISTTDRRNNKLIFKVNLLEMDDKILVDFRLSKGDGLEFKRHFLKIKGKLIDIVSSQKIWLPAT

[8] = biological target: RAF proto-oncogene serine/threonine-protein kinase (Homo sapiens, UniProt P04049, Y340D/Y341D); experiment: Inhibition of recombinant human C-Raf Y340D/Y341D double mutant (306 to end residues) using poly(Glu, Tyr) 4:1 as substrate incubated 40 mins in presence of [gamma-33ATP] by radiometric scintillation counting analysis
RAF proto-oncogene serine/threonine-protein kinase, sequence (P04049 whole entry Y340D/Y341D): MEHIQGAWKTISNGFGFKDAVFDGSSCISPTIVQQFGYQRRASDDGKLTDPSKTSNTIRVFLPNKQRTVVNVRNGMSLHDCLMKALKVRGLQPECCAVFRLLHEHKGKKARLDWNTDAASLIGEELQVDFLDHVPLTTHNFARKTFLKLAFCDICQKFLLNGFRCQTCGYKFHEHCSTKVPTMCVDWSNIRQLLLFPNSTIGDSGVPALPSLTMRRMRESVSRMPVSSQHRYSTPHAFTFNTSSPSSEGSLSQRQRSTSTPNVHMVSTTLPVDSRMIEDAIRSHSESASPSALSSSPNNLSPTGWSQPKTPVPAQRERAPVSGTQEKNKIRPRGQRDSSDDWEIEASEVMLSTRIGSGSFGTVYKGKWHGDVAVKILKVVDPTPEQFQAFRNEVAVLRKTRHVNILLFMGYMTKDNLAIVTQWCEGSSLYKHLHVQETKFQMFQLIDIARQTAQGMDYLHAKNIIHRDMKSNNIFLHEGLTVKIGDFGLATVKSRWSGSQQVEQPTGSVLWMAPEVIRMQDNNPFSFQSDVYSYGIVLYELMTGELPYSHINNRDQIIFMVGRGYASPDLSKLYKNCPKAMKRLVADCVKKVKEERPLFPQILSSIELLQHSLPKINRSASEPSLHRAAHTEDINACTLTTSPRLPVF

[9] = biological target: Protein kinase C beta type (Homo sapiens, UniProt P05771); experiment: Inhibition of recombinant human PKCbeta2 (2 to end residues) using histone H1 as substrate incubated for 40 mins in presence of [gamma33P]ATP by radiometric scintillation counting analysis
Protein kinase C beta type, sequence (P05771 whole entry, the tested form may be a part): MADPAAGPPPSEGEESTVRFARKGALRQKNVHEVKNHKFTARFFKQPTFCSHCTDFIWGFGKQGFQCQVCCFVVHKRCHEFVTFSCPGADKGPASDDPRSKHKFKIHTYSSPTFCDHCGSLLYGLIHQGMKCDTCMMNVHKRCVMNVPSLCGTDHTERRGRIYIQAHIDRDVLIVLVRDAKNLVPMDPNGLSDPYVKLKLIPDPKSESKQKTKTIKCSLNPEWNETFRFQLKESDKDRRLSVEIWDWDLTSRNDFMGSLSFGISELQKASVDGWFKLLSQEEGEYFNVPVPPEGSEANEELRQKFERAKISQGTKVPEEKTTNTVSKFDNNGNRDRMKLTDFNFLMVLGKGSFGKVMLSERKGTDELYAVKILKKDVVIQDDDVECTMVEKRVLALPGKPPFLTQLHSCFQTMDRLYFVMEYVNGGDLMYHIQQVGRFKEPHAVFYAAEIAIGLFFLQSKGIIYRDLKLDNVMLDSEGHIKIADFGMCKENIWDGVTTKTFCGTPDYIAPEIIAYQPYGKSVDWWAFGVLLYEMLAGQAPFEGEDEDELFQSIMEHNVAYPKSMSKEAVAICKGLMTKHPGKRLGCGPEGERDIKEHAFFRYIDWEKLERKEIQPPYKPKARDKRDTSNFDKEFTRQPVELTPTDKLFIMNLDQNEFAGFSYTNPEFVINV

[10] = biological target: Serine/threonine-protein kinase 24 (Homo sapiens, UniProt Q9Y6E0); experiment: Inhibition of recombinant human MST3 (1 to 304 residues) using ERMRPRKRQGSVR as substrate measured after 40 mins in presence of [gamma33P]ATP by radiometric scintillation counting analysis
[11] = biological target: Serine/threonine-protein kinase pim-2 (Homo sapiens, UniProt Q9P1W9); experiment: Inhibition of recombinant human Pim2 (2 to end residues) using RSRHSSYPAGT as substrate incubated for 40 mins in presence of [gamma33P]ATP by radiometric scintillation counting analysis
Serine/threonine-protein kinase pim-2, sequence (Q9P1W9 whole entry): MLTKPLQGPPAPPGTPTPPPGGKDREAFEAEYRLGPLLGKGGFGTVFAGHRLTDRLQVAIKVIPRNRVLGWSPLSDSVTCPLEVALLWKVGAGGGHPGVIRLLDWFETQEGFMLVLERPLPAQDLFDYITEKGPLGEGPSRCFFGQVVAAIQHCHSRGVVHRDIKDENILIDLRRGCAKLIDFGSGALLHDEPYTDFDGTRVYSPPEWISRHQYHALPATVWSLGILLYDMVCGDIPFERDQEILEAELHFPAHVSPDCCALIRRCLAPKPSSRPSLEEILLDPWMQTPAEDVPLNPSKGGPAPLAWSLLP

[12] = biological target: Serine/threonine-protein kinase MARK2 (Homo sapiens, UniProt Q7KZI7); experiment: Inhibition of recombinant full-length human PAR1Balpha using KKKVSRSGLYRSP as substrate measured after 40 mins in presence of [gamma33P]ATP by radiometric scintillation counting analysis
[13] = biological target: Tyrosine-protein kinase Fes/Fps (Homo sapiens, UniProt P07332); experiment: Inhibition of recombinant human FES (2 to end residues) using poly(Glu, Tyr) 4:1 as substrate after 40 mins in presence of [gamma-33ATP] by radiometric scintillation counting analysis
[14] = Inhibition of recombinant human FLT4 V1128L/H1146R double mutant (800 to end residues) using GGEEEEYFELVKK as substrate after 40 mins in presence of [gamma-33ATP] by radiometric scintillation counting analysis
[15] = biological target: Tyrosine-protein kinase Lck (Homo sapiens, UniProt P06239); experiment: Inhibition of recombinant full length activated human LCK using […] as substrate after 40 mins in presence of [gamma-33ATP] by radiometric scintillation counting analysis
Tyrosine-protein kinase Lck, sequence (P06239 whole entry): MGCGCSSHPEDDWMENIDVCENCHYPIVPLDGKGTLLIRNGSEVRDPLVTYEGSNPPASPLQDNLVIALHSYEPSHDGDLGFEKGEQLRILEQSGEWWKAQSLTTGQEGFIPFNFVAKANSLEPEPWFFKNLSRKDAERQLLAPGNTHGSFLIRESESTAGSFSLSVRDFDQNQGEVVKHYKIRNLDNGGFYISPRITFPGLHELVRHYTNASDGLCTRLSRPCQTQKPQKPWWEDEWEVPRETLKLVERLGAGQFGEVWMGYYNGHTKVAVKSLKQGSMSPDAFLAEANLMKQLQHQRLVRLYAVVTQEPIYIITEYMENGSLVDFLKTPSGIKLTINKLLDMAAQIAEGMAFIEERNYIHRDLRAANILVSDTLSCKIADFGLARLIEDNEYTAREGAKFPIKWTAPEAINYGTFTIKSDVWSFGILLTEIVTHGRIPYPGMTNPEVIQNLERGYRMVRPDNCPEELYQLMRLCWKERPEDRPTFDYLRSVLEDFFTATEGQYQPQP

[16] = biological target: Tyrosine-protein kinase Lyn (Homo sapiens, UniProt P07948); experiment: Inhibition of recombinant full length human Lyn using poly(Glu, Tyr) 4:1 as substrate after 40 mins in presence of [gamma-33ATP] by radiometric scintillation counting analysis
[17] = biological target: Leucine-rich repeat serine/threonine-protein kinase 2 (Homo sapiens, UniProt Q5S007); experiment: Inhibition of recombinant human LRRK2 (970 to end residues) using RLGRDKYKTLRQI as substrate after 40 mins in presence of [gamma-33ATP] by radiometric scintillation counting analysis
[18] = Inhibition of recombinant human MAPKAPK2 A399G mutant (46 to end residues) using KKLNRTLSVA as substrate incubated for 40 mins in presence of [gamma-33ATP by radiometric scintillation counting analysis
[19] = biological target: Interferon-induced, double-stranded RNA-activated protein kinase (Homo sapiens, UniProt P19525); experiment: Inhibition of recombinant human PKR (252 to end residues) using RSRSRSRSRSRSRS as substrate incubated for 40 mins in presence of [gamma33P]ATP by radiometric scintillation counting analysis
Interferon-induced, double-stranded RNA-activated protein kinase, sequence (P19525 whole entry): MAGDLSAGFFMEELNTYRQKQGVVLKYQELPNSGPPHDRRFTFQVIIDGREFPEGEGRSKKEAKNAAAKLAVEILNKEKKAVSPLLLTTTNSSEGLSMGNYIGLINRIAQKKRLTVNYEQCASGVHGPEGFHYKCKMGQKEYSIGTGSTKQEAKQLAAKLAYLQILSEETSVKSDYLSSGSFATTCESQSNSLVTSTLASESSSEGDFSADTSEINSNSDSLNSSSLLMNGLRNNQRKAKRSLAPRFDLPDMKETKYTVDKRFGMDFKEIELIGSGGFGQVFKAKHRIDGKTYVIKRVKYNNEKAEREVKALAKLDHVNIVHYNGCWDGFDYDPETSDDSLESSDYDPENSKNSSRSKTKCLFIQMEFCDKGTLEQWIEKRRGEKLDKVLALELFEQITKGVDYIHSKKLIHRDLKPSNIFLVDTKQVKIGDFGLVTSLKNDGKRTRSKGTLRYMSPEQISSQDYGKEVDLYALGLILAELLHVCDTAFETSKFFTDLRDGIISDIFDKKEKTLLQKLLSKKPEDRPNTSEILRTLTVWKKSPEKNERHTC

[20] = biological target: Serine/threonine-protein kinase 32C (Homo sapiens, UniProt Q86UX6); experiment: Inhibition of recombinant human full length STK32C using casein as substrate incubated for 120 mins in presence of [gamma33P]ATP by radiometric scintillation counting analysis
[21] = biological target: Serine/threonine-protein kinase TBK1 (Homo sapiens, UniProt Q9UHD2); experiment: Inhibition of recombinant full length human TBK1 using KRRRALS(p)VAS as substrate incubated for 40 mins in presence of [gamma33P]ATP by radiometric scintillation counting analysis
Serine/threonine-protein kinase TBK1, sequence (Q9UHD2 whole entry): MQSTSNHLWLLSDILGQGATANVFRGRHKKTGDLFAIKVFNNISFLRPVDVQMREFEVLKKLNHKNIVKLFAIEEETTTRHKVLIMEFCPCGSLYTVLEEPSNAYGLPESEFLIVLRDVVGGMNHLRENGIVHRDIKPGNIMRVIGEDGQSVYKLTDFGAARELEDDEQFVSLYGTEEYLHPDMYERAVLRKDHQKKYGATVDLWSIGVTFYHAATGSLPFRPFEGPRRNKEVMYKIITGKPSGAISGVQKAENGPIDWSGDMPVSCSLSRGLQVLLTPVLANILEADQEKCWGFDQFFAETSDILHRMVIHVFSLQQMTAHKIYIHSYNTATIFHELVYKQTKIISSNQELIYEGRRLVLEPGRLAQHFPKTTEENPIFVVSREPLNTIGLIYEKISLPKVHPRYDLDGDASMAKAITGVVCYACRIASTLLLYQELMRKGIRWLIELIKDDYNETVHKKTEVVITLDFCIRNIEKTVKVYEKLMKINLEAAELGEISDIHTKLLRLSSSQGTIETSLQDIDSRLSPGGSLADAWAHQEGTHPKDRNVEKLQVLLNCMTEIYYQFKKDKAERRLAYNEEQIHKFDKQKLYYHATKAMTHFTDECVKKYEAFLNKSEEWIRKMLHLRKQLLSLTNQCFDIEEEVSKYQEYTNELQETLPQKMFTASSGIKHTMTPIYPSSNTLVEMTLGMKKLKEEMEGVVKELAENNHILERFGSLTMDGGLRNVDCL

[22] = biological target: Serine/threonine-protein kinase ULK3 (Homo sapiens, UniProt Q6PHR2); experiment: Inhibition of recombinant human full length ULK3 using casein as substrate incubated for 40 mins in presence of [gamma33P]ATP by radiometric scintillation counting analysis
[23] = biological target: Wee1-like protein kinase (Homo sapiens, UniProt P30291); experiment: Inhibition of recombinant human WEE1 (214 to end residues) using LSNLYHQGKFLQT as substrate incubated for 40 mins in presence of [gamma33P]ATP by radiometric scintillation counting analysis
[24] = Inhibition of recombinant full-length human ATR/ATRIP M211T mutant using GST-cMyc-p53 as substrate incubated for 40 mins by fluorescence assay
[25] = biological target: PI3-kinase p110-alpha/p85-alpha (Homo sapiens, UniProt P42336, E545K); experiment: Inhibition of recombinant human full length PI3K p110alpha/p85alpha E545K mutant using phosphatidylinositol 4,5-bisphosphate as substrate incubated for 40 mins in presence of [gamma33P]ATP by radiometric scintillation counting analysis; format: protein-complex assay
[26] = Inhibition of human PIP5K1

SMILES: CN(C)c1ccc(C(=O)Nc2cccc(NC(=O)COc3ccc4c(=O)ccoc4c3)c2)cc1
- IC50 [1]: 0.014 µM
- IC50 [2]: > 10 µM
- IC50 [3]: > 10 µM
- IC50 [4]: > 10 µM
- IC50 [5]: > 10 µM
- IC50 [6]: > 10 µM
- IC50 [7]: > 10 µM
- IC50 [8]: > 10 µM
- IC50 [9]: > 10 µM
- IC50 [10]: > 10 µM
- IC50 [11]: > 10 µM
- IC50 [12]: > 10 µM
- IC50 [13]: > 10 µM
- IC50 [14]: > 10 µM
- IC50 [15]: > 10 µM
- IC50 [16]: > 10 µM
- IC50 [17]: > 10 µM
- IC50 [18]: > 10 µM
- IC50 [19]: > 10 µM
- IC50 [20]: > 10 µM
- IC50 [21]: > 10 µM
- IC50 [22]: > 10 µM
- IC50 [23]: > 10 µM
- IC50 [24]: > 10 µM
- IC50 [25]: > 10 µM
- IC50 [26]: > 10 µM
